Measured values reported in ChEMBL document CHEMBL5352419, “Design, synthesis, and biological evaluation of tetrahydroquinoline amphiphiles as membrane-targeting antimicrobials against pathogenic bacteria and fungi” (Eur J Med Chem, 2022).
≈ marks a conversion by molar mass, not a printed value.

Legend:
Candida albicans [1] = assay: Antimicrobial activity against Candida albicans CMCC98001 assessed as fungal growth inhibition incubated for 48 hrs by Sabouraud Dextrose broth based dilution assay; type: functional
Staphylococcus aureus [2] = assay: Antimicrobial activity against Staphylococcus aureus ATCC29213 assessed as bacterial growth inhibition incubated for 24 hrs by Muller Hinton broth based dilution assay; type: functional
Staphylococcus aureus [3] = assay: Antimicrobial activity against methicillin-resistant Staphylococcus aureus NCTC10442 assessed as bacterial growth inhibition incubated for 24 hrs by Muller Hinton broth based dilution assay; type: functional
Candida albicans [4] = assay: Antimicrobial activity against Candida albicans ATCC10231 assessed as fungal growth inhibition incubated for 48 hrs by Sabouraud Dextrose broth based dilution assay; type: functional
[5] = Hemolytic activity in rabbit RBC incubated for 1 hr by absorbance based microplate reader assay; type: toxicity, cell-based, Oryctolagus cuniculus, Erythrocyte; details: rabbit red blood cells (erythrocytes)
Escherichia coli = assay: Antimicrobial activity against Escherichia coli ATCC25922 assessed as bacterial growth inhibition incubated for 24 hrs by Muller Hinton broth based dilution assay; type: functional
Staphylococcus aureus [6] = assay: Antimicrobial activity against methicillin-resistant Staphylococcus aureus N315 assessed as bacterial growth inhibition incubated for 24 hrs by Muller Hinton broth based dilution assay; type: functional

SMILES | MIC (Candida albicans [1]) | MIC (Staphylococcus aureus [2]) | MIC (Staphylococcus aureus [3]) | MIC (Candida albicans [4]) | HC50 at 1 h [5] | MIC (Escherichia coli) | MIC (Staphylococcus aureus [6])
CCCCCCCN1CCCc2cc(OCCCCBr)ccc21 | 12.5 µg/mL (≈ 32.7 µM) | 12.5 µg/mL (≈ 32.7 µM) | 6.25 µg/mL (≈ 16.3 µM) | 25 µg/mL (≈ 65.4 µM) | > 200 µg/mL | 25 µg/mL (≈ 65.4 µM) | 6.25 µg/mL (≈ 16.3 µM)
CCCCCCCCCN1CCCc2cc(OCCCCBr)ccc21 | 50 µg/mL (≈ 122 µM) | 6.25 µg/mL (≈ 15.2 µM) | 12.5 µg/mL (≈ 30.5 µM) | 50 µg/mL (≈ 122 µM) | > 200 µg/mL | 25 µg/mL (≈ 60.9 µM) | 12.5 µg/mL (≈ 30.5 µM)
CCCCCCCCCN1CCCc2cc(OCC(=O)OCC)ccc21 | > 50 µg/mL | > 50 µg/mL | > 50 µg/mL | > 50 µg/mL | > 200 µg/mL | > 50 µg/mL | > 50 µg/mL
CC(C)=CCN1CCCc2cc(OCCCCBr)ccc21 | > 50 µg/mL | 25 µg/mL (≈ 71 µM) | 25 µg/mL (≈ 71 µM) | > 50 µg/mL | > 200 µg/mL | > 50 µg/mL | 12.5 µg/mL (≈ 35.5 µM)
CC(C)=CCN1CCCc2cc(OCCCCN3CCCC3)ccc21 | > 50 µg/mL | > 50 µg/mL | > 50 µg/mL | > 50 µg/mL | > 200 µg/mL | > 50 µg/mL | > 50 µg/mL
CCCCCCCN1CCCc2cc(O)ccc21 | > 50 µg/mL | 12.5 µg/mL (≈ 50.5 µM) | 12.5 µg/mL (≈ 50.5 µM) | > 50 µg/mL | > 200 µg/mL | > 50 µg/mL | 12.5 µg/mL (≈ 50.5 µM)
CCCCN1CCCc2cc(OCCCCBr)ccc21 | 50 µg/mL (≈ 147 µM) | 12.5 µg/mL (≈ 36.7 µM) | 6.25 µg/mL (≈ 18.4 µM) | > 50 µg/mL | > 200 µg/mL | 50 µg/mL (≈ 147 µM) | 6.25 µg/mL (≈ 18.4 µM)
CC(C)=CCN1CCCc2cc(OCCCCN3CCSCC3)ccc21 | > 50 µg/mL | > 50 µg/mL | > 50 µg/mL | > 50 µg/mL | > 200 µg/mL | > 50 µg/mL | > 50 µg/mL
CCCCCN1CCCc2cc(OCCCCBr)ccc21 | 50 µg/mL (≈ 141 µM) | 25 µg/mL (≈ 70.6 µM) | 25 µg/mL (≈ 70.6 µM) | 50 µg/mL (≈ 141 µM) | > 200 µg/mL | > 50 µg/mL | 25 µg/mL (≈ 70.6 µM)
CC(C)=CCN1CCCc2cc(OCCCCN(C)C)ccc21 | > 50 µg/mL | 25 µg/mL (≈ 79 µM) | 25 µg/mL (≈ 79 µM) | > 50 µg/mL | > 200 µg/mL | 25 µg/mL (≈ 79 µM) | 25 µg/mL (≈ 79 µM)
CCCCCN1CCCc2cc(OCC(=O)OCC)ccc21 | > 50 µg/mL | > 50 µg/mL | > 50 µg/mL | > 50 µg/mL | > 200 µg/mL | > 50 µg/mL | > 50 µg/mL
CC(C)=CCN1CCCc2cc(OCCCCCCCCBr)ccc21 | 50 µg/mL (≈ 122 µM) | > 50 µg/mL | > 50 µg/mL | 50 µg/mL (≈ 122 µM) | > 200 µg/mL | > 50 µg/mL | > 50 µg/mL
CCCCCCCCCN1CCCc2cc(OCCCCCCCCBr)ccc21 | > 50 µg/mL | 25 µg/mL (≈ 53.6 µM) | 50 µg/mL (≈ 107 µM) | > 50 µg/mL | > 200 µg/mL | > 50 µg/mL | 25 µg/mL (≈ 53.6 µM)
CNCCCCOc1ccc2c(c1)CCCN2CC=C(C)C | 50 µg/mL (≈ 165 µM) | 25 µg/mL (≈ 82.7 µM) | 12.5 µg/mL (≈ 41.3 µM) | 50 µg/mL (≈ 165 µM) | > 200 µg/mL | 25 µg/mL (≈ 82.7 µM) | 6.25 µg/mL (≈ 20.7 µM)
CC(C)=CCC/C(C)=C/CN1CCCc2cc(OCCCCCCCCBr)ccc21 | 12.5 µg/mL (≈ 26.2 µM) | 6.25 µg/mL (≈ 13.1 µM) | 6.25 µg/mL (≈ 13.1 µM) | 12.5 µg/mL (≈ 26.2 µM) | > 200 µg/mL | 25 µg/mL (≈ 52.5 µM) | 6.25 µg/mL (≈ 13.1 µM)
CC(C)=CCN1CCCc2cc(OCCCCN3CCCCC3)ccc21 | > 50 µg/mL | > 50 µg/mL | > 50 µg/mL | > 50 µg/mL | > 200 µg/mL | > 50 µg/mL | > 50 µg/mL
CCCCCNCCCCOc1ccc2c(c1)CCCN2CC=C(C)C | > 50 µg/mL | 6.25 µg/mL (≈ 17.4 µM) | 6.25 µg/mL (≈ 17.4 µM) | > 50 µg/mL | 146 µg/mL | 50 µg/mL (≈ 139 µM) | 6.25 µg/mL (≈ 17.4 µM)
N=C(N)NCCCCOc1ccc2c(c1)CCCN2CCCC(F)(F)F | > 50 µg/mL | 6.25 µg/mL (≈ 16.8 µM) | 6.25 µg/mL (≈ 16.8 µM) | > 50 µg/mL | > 200 µg/mL | 25 µg/mL (≈ 67.1 µM) | 6.25 µg/mL (≈ 16.8 µM)
CC(C)=CCN1CCCc2cc(OCCCBr)ccc21 | 50 µg/mL (≈ 148 µM) | 25 µg/mL (≈ 73.9 µM) | 25 µg/mL (≈ 73.9 µM) | 50 µg/mL (≈ 148 µM) | > 200 µg/mL | > 50 µg/mL | 25 µg/mL (≈ 73.9 µM)
CC(C)=CCC/C(C)=C/CN1CCCc2cc(O)ccc21 | 25 µg/mL (≈ 87.6 µM) | 12.5 µg/mL (≈ 43.8 µM) | 12.5 µg/mL (≈ 43.8 µM) | 50 µg/mL (≈ 175 µM) | > 200 µg/mL | > 50 µg/mL | 12.5 µg/mL (≈ 43.8 µM)
CC(C)=CCN1CCCc2cc(OCCCCCCCCCCBr)ccc21 | 12.5 µg/mL (≈ 28.6 µM) | 3.12 µg/mL (≈ 7.16 µM) | 3.12 µg/mL (≈ 7.16 µM) | 12.5 µg/mL (≈ 28.6 µM) | > 200 µg/mL | 25 µg/mL (≈ 57.3 µM) | 3.12 µg/mL (≈ 7.16 µM)
C[C@@H]1C/C=C/C=C/C=C/C=C/[C@H](O[C@@H]2O[C@H](C)[C@@H](O)[C@H](N)[C@@H]2O)C[C@@H]2O[C@](O)(C[C@@H](O)C[C@H]3O[C@@H]3/C=C/C(=O)O1)C[C@H](O)[C@H]2C(=O)O [NATAMYCIN] | 6.25 µg/mL (≈ 9.39 µM) |  |  | 6.25 µg/mL (≈ 9.39 µM) |  |  | 
CC(C)=CCN1CCCc2cc(OCCCCNCCN(CCN)CCN)ccc21 | 50 µg/mL (≈ 120 µM) | 12.5 µg/mL (≈ 29.9 µM) | 6.25 µg/mL (≈ 15 µM) | > 50 µg/mL | > 200 µg/mL | 50 µg/mL (≈ 120 µM) | 6.25 µg/mL (≈ 15 µM)
CCCN1CCCc2cc(O)ccc21 | > 50 µg/mL | > 50 µg/mL | > 50 µg/mL | > 50 µg/mL | > 200 µg/mL | > 50 µg/mL | > 50 µg/mL
CCCCCCCN1CCCc2cc(OCC(=O)N[C@@H](CCCNC(=N)N)C(=O)N[C@@H](CCCNC(=N)N)C(=O)OC)ccc21 | 50 µg/mL (≈ 79.1 µM) | 6.25 µg/mL (≈ 9.89 µM) | 3.12 µg/mL (≈ 4.95 µM) | > 50 µg/mL | > 200 µg/mL | 50 µg/mL (≈ 79.1 µM) | 3.12 µg/mL (≈ 4.95 µM)
CCCCCN1CCCc2cc(O)ccc21 | > 50 µg/mL | 50 µg/mL (≈ 228 µM) | 25 µg/mL (≈ 114 µM) | > 50 µg/mL | > 200 µg/mL | > 50 µg/mL | 25 µg/mL (≈ 114 µM)
CCCN(CCC)CCCCOc1ccc2c(c1)CCCN2CC=C(C)C | > 50 µg/mL | 25 µg/mL (≈ 67.1 µM) | 50 µg/mL (≈ 134 µM) | > 50 µg/mL | > 200 µg/mL | > 50 µg/mL | 25 µg/mL (≈ 67.1 µM)
CC(C)=CCN1CCCc2cc(O)ccc21 | > 50 µg/mL | 50 µg/mL (≈ 230 µM) | 50 µg/mL (≈ 230 µM) | > 50 µg/mL | > 200 µg/mL | > 50 µg/mL | 50 µg/mL (≈ 230 µM)
CCCNCCCCOc1ccc2c(c1)CCCN2CC=C(C)C | > 50 µg/mL | 50 µg/mL (≈ 151 µM) | 25 µg/mL (≈ 75.6 µM) | > 50 µg/mL | > 200 µg/mL | > 50 µg/mL | 25 µg/mL (≈ 75.6 µM)
CC(C)=CCN1CCCc2cc(OCCCCNC(=N)N)ccc21 | > 50 µg/mL | 3.12 µg/mL (≈ 9.46 µM) | 3.12 µg/mL (≈ 9.46 µM) | > 50 µg/mL | > 200 µg/mL | 25 µg/mL (≈ 75.6 µM) | 1.56 µg/mL (≈ 4.72 µM)
